# PMC12040169 (PLOS Biology, 2025)
# Where “and” joins values, the source holds several entries; their conditions need not be identical. Equal values may be shown once.
# Legend:
# [1] = test system: T1, CTL2-GFP (C. trachomatis L2/434/Bu, GFP-expressing); assay: microbe, parasite or virus in culture; parameters: species or system HeLa; C. trachomatis growth in HeLa, dose-response, mean of bulk GFP fluorescence and imaged total inclusion area; details: Chlamydia trachomatis, 28.5 h; mean of GFP and inclusion area
# T1 construct: L2/434/Bu, GFP-expressing
# From the text: (§1) We screened a library of 36,785 small molecules displaying drug-like properties and covering a wide chemical space (Fig 1A and S2A Data). In this process, we also complemented the assay described above with an imaging-based readout (Fig 1B). After measurements of bulk GFP and resorufin fluorescence, cells were fixed, stained with the DNA dye Hoechst, and imaged at a high-content imaging platform to detect chlamydial inclusions (GFP) and host cell nuclei (Hoechst). The total area and number of inclusions in individual wells and the number of nuclei then served as additional proxies for chlamydial growth and host cell viability. […] MICs were calculated as described above.
# [2] = test system: T1, CTL2-GFP (C. trachomatis L2/434/Bu, GFP-expressing); assay: microbe, parasite or virus in culture; parameters: C. trachomatis growth in HeLa, dose-response, mean of bulk GFP fluorescence and imaged total inclusion area; details: Chlamydia trachomatis, HeLa, 28.5 h; mean of GFP and inclusion area
# From the text: as §1
# in vitro [3] = assay: in vitro; parameters: Viability of infected HeLa host cells, resazurin conversion, bulk resorufin fluorescence relative to DMSO; details: human, hela cells; bulk resorufin, mean of 3
# HeLa = details: bulk resorufin, single well, 28.5 h, 10 µM, Bulk resorufin fluorescence
# in vitro [4] = details: human, hela cells, % viability
smiles,measurement,setting,value
O=C1C(NCCO)=C(Nc2cccc(Cl)c2)C(=O)c2ccccc21 [c45e],MIC,[1],19.4 µM
same,IC50,[2],6.16 µM
same,"viability at 28.5 h, 0.000416667 µM",in vitro [3],89.2%
same,"viability at 28.5 h, 0.00125 µM",in vitro [3],87.4%
same,"viability at 28.5 h, 0.00375 µM",in vitro [3],91%
same,"viability at 28.5 h, 0.0123333 µM",in vitro [3],91.6%
same,"viability at 28.5 h, 0.037 µM",in vitro [3],91.8%
same,"viability at 28.5 h, 0.111 µM",in vitro [3],88.5%
same,"viability at 28.5 h, 0.333 µM",in vitro [3],92.8%
same,"viability at 28.5 h, 1 µM",in vitro [3],89.8%
same,"viability at 28.5 h, 3 µM",in vitro [3],93.6%
same,"viability at 28.5 h, 10 µM",in vitro [3],97.9%
same,"viability at 28.5 h, 30 µM",in vitro [3],102%
CN(C)c1ccc(Nc2nc(NCCO)c3ccccc3n2)cc1 [c27e],MIC,[1],5.04 µM
same,IC50,[2],2.54 µM
same,"viability at 28.5 h, 0.000416667 µM",in vitro [3],93.3%
same,"viability at 28.5 h, 0.00125 µM",in vitro [3],89.2%
same,"viability at 28.5 h, 0.00375 µM",in vitro [3],89.8%
same,"viability at 28.5 h, 0.0123333 µM",in vitro [3],89.3%
same,"viability at 28.5 h, 0.037 µM",in vitro [3],93.2%
same,"viability at 28.5 h, 0.111 µM",in vitro [3],89.1%
same,"viability at 28.5 h, 0.333 µM",in vitro [3],95.3%
same,"viability at 28.5 h, 1 µM",in vitro [3],89.9%
same,"viability at 28.5 h, 3 µM",in vitro [3],103%
same,"viability at 28.5 h, 10 µM",in vitro [3],99.4%
same,"viability at 28.5 h, 30 µM",in vitro [3],110%
COc1ccc(CC(=O)N2CCCC(c3nc(C)c4c(n3)N(CC3CC3)CCC4)C2)cc1 (stereo not shown) [c52e],MIC,[1],9.34 µM
same,IC50,[2],8.46 µM
same,"viability at 28.5 h, 0.000416667 µM",in vitro [3],85.5%
same,"viability at 28.5 h, 0.00125 µM",in vitro [3],91.1%
same,"viability at 28.5 h, 0.00375 µM",in vitro [3],88.5%
same,"viability at 28.5 h, 0.0123333 µM",in vitro [3],92.2%
same,"viability at 28.5 h, 0.037 µM",in vitro [3],88.5%
same,"viability at 28.5 h, 0.111 µM",in vitro [3],91.4%
same,"viability at 28.5 h, 0.333 µM",in vitro [3],88.5%
same,"viability at 28.5 h, 1 µM",in vitro [3],96.8%
same,"viability at 28.5 h, 3 µM",in vitro [3],90.3%
same,"viability at 28.5 h, 10 µM",in vitro [3],95.6%
same,"viability at 28.5 h, 30 µM",in vitro [3],102%
COc1ccc2cc3c(nc2c1)OC(=O)N(CC1CC1)C3 [c32e],MIC,[1],4.53 µM
same,IC50,[2],3.16 µM
same,"viability at 28.5 h, 0.000416667 µM",in vitro [3],102%
same,"viability at 28.5 h, 0.00125 µM",in vitro [3],94.1%
same,"viability at 28.5 h, 0.00375 µM",in vitro [3],91.5%
same,"viability at 28.5 h, 0.0123333 µM",in vitro [3],92%
same,"viability at 28.5 h, 0.037 µM",in vitro [3],89.7%
same,"viability at 28.5 h, 0.111 µM",in vitro [3],84.5%
same,"viability at 28.5 h, 0.333 µM",in vitro [3],88.5%
same,"viability at 28.5 h, 1 µM",in vitro [3],84.9%
same,"viability at 28.5 h, 3 µM",in vitro [3],86.8%
same,"viability at 28.5 h, 10 µM",in vitro [3],85.1%
same,"viability at 28.5 h, 30 µM",in vitro [3],85.4%
COCC(=O)N[C@H]1C[C@H]2C(=O)Nc3ccc(/C=C/c4ccccc4)cc3C(=O)N2C1 [c25e],MIC,[1],9.14 µM
same,IC50,[2],2.47 µM
same,"viability at 28.5 h, 0.000416667 µM",in vitro [3],97.4%
same,"viability at 28.5 h, 0.00125 µM",in vitro [3],103%
same,"viability at 28.5 h, 0.00375 µM",in vitro [3],99.5%
same,"viability at 28.5 h, 0.0123333 µM",in vitro [3],105%
same,"viability at 28.5 h, 0.037 µM",in vitro [3],100%
same,"viability at 28.5 h, 0.111 µM",in vitro [3],98.6%
same,"viability at 28.5 h, 0.333 µM",in vitro [3],102%
same,"viability at 28.5 h, 1 µM",in vitro [3],106%
same,"viability at 28.5 h, 3 µM",in vitro [3],110%
same,"viability at 28.5 h, 10 µM",in vitro [3],113%
same,"viability at 28.5 h, 30 µM",in vitro [3],113%
COc1ccc([C@@H]2CN(C)C[C@H]2NC(=O)Nc2ccc(Cl)c(Cl)c2)cc1OC [c39e],MIC,[1],5.39 µM
same,IC50,[2],4.96 µM
same,"viability at 28.5 h, 0.000416667 µM",in vitro [3],93.1%
same,"viability at 28.5 h, 0.00125 µM",in vitro [3],88.4%
same,"viability at 28.5 h, 0.00375 µM",in vitro [3],92.6%
same,"viability at 28.5 h, 0.0123333 µM",in vitro [3],90.6%
same,"viability at 28.5 h, 0.037 µM",in vitro [3],94.9%
same,"viability at 28.5 h, 0.111 µM",in vitro [3],83.9%
same,"viability at 28.5 h, 0.333 µM",in vitro [3],87.9%
same,"viability at 28.5 h, 1 µM",in vitro [3],84.4%
same,"viability at 28.5 h, 3 µM",in vitro [3],86.1%
same,"viability at 28.5 h, 10 µM",in vitro [3],84.6%
same,"viability at 28.5 h, 30 µM",in vitro [3],81.3%
CCOC(=O)c1[nH]c(C)c(CN2CC3CCCN3C[C@@H]2C)c1C (stereo partly shown) [CBK285043],% viability,HeLa,105%
same,"viability at 28.5 h, 10 µM",in vitro [4],110%
Cc1cc2ncn(C3CC(=O)N(c4ccc(C(=O)O)cc4)C3=O)c2cc1C (stereo not shown) [CBK286586],% viability,HeLa,92.4%
same,"viability at 28.5 h, 10 µM",in vitro [4],89.4%
COc1ccc([C@@]23CC[C@@H](CNS(=O)(=O)c4cccc(Cl)c4)C[C@@H]2N(C)CC3)cc1OC [CBK042202T],% viability,HeLa,91.5%
same,"viability at 28.5 h, 10 µM",in vitro [4],99.8%
Cc1nn(C)c(Cl)c1S(=O)(=O)Nc1nc(=O)[nH]cc1F [CBK067568],% viability,HeLa,97.9% and 87.2%
same,"viability at 28.5 h, 10 µM",in vitro [4],99.1%
CC(C)c1n[nH]c2c1/C(=N\N)c1ccccc1-2 [CBK017384],% viability,HeLa,73.8%
same,"viability at 28.5 h, 10 µM",in vitro [4],85.4%
CC(C)n1cc(CN2CC3C[C@@H](O)CN3C[C@H]2C)c2ccccc21 (stereo partly shown) [CBK285437],% viability,HeLa,88.8%
same,"viability at 28.5 h, 10 µM",in vitro [4],107%
S=c1[nH]nc(-c2sc3ccccc3c2Cl)[nH]1 [CBK013698],% viability,HeLa,90.2%
same,"viability at 28.5 h, 10 µM",in vitro [4],96.3%
O=C(O)c1cc(S(=O)(=O)NCc2ccco2)c(Cl)cc1N1CCCCC1 [CBK263409],% viability,HeLa,92.5%
same,"viability at 28.5 h, 10 µM",in vitro [4],108%
Oc1ccc(-c2cncc(-c3ccc(CN4CCOCC4)cc3)n2)cc1 [CBK123787],% viability,HeLa,108%
same,"viability at 28.5 h, 10 µM",in vitro [4],104%
COc1cccc(NC(=O)c2sc3ncn(C)c(=O)c3c2C)c1 [CBK071807],% viability,HeLa,82.5%
same,"viability at 28.5 h, 10 µM",in vitro [4],99.2%
CCS(=O)(=O)N1CC=C[C@H]1C(=O)NCCc1ccccc1 [CBK284325],% viability,HeLa,89.7%
same,"viability at 28.5 h, 10 µM",in vitro [4],107%
Cc1nn(C)c(N2CCNCC2)c1NC(=O)c1ccoc1 [CBK050302T],% viability,HeLa,108%
same,"viability at 28.5 h, 10 µM",in vitro [4],99.7%
O=C(Cn1c([C@@H]2CCCO2)cc2cccnc21)N1CCCCCC1 [CBK282285],% viability,HeLa,101%
same,"viability at 28.5 h, 10 µM",in vitro [4],88%
COc1ccc(C2N(CC(N)=O)CCOC23CCN(C(=O)c2ccc4ccccc4c2)CC3)cc1 (stereo not shown) [CBK115613],% viability,HeLa,101%
same,"viability at 28.5 h, 10 µM",in vitro [4],96.9%
CC1=C/C(=C(\C#N)C(N)=O)NC(c2ccccc2O)=N1 [CBK019764],% viability,HeLa,95.3%
same,"viability at 28.5 h, 10 µM",in vitro [4],111%
O=C(O)/C=C\C(=O)Nc1ccccc1C#Cc1ccccc1 [CBK261680],% viability,HeLa,83.2%
same,"viability at 28.5 h, 10 µM",in vitro [4],82.9%
O=C(CN1C(=O)[C@@H]2CCCN2c2ncccc21)NCc1ccccc1 [CBK286203],% viability,HeLa,117%
same,"viability at 28.5 h, 10 µM",in vitro [4],115%
